{
  "source": "patent EP3479863B1",
  "about": "“COMPOSITIONS, METHODS AND ARTICLES CONCERNING PHARMACEUTICAL NITRIC OXIDE AND CONTROLLED PATIENT DELIVERY SYSTEMS THEREOF” (Mallinckrodt Pharmaceuticals Ireland Limited, priority 2010, dated 2012)",
  "key": {"[1]": {"conditions": "two lines for one acid = two pKa values; cited from earlier work"}, "[2]": {"assay": "NO release from powdered acids hit by single 50 nL sodium nitrite droplets, measured with NO analyzer", "conditions": "Example 2; for Time to 90% AUC: 7 mg finely ground powder per well, 50 nL droplet of 6M NaNO2, air flow 500 mL/minute; for NO release kinetics: comparison in words, FIG. 12 and FIG. 13", "protocol": "Powdered acids of different acidity (TABLE 1) and reducing capacity, or mixtures at equal weight ratios thereof, were tested for their ability to promote NO release from concentrated aqueous solutions of sodium nitrite. Acids were finely ground and about 5-7 mg placed into wells of a reaction plate contained within a reaction chamber equipped with a microvalve capable of dispensing single 50 nL liquid droplets of sodium nitrite into each well. The reaction chamber was continuously flushed with air at defined flow rates and the NO concentration in the air measured with a […]® NO Analyzer 280i. When NO concentrations exceeded the measurement range of the NO analyzer, the air stream was diluted with a nitrogen stream of defined flow rate prior to measurement and the measured NO concentration corrected for the dilution factor. 50 ml of 6M NaNO2 stock solution was prepared and degassed for 15 minutes. 10 mL of the stock solution was filled into a liquid reservoir feeding a microvalve capable of dispensing single 50 nL liquid droplets sequentially into each of six wells of a reaction plate contained within a reaction chamber. The air flow rate through the reaction chamber was set to 500 mL/minute. The air flow was diluted with nitrogen gas to a flow rate of 1586 mL/minute to allow measurement of the entire NO peak with a […]® NO Analyzer 280i. The NO analyzer was calibrated using a 45 ppm NO calibration gas prior to the experiment. […] The microvalve fired a 50 nL droplet into each well. The timecourse of NO production was measured with the NO Analyzer. The following time parameters were analyzed for each NO peak: AUC, time to reaching 90% of the AUC, and maximum peak NO concentration."}, "[3]": {"assay": "NO release from croconic acid coated MAGNA nylon tape versus particulate croconic acid, single 50 nL droplets", "conditions": "single 50 nL droplets of 6M NaNO2", "protocol": "10 grams of croconic acid were milled for 5 minutes using a bench top micromill and sifted through a 32 µm sieve. 100 mg of milled acid were suspended into 1 mL of absolute MeOH supplemented with 2% v/v cornstarch and 0.05% v/v glycerol. The yellow-orange suspension was spread evenly as a single coat using an acid resistant brush onto a 5 mm by 18 inch MAGNA® hydrophobic nylon tape of 1 .2 µm pore size. The tape was air-dried for 30 min by suspending it horizontally at both ends. The croconic acid formed a dark yellow slightly powdery coating on top of the nylon membrane; the average surface density of croconic acid deposited on the tape was 2.66 mg/cm^2.\nNO release in response to single 50 nL droplets of 6M NaNO2 is shown in FIG 14 and TABLE 3, compared to the NO release from croconic acid powder. The croconic acid coated tape produced 85.3% of the NO compared to the bulk croconic acid powder, based upon the AUC.\nParticulate croconic acid of particle size < 20µm produced by dry-milling for 45 min was formulated as 500 mg/ml suspension in USP ethanol by 10 min of sonication with additives of 0.05% v/v glycerol and 2% v/v starch and coated onto MAGNA® hydrophobic nylon tape in two sequential air-dried coats, yielding an average croconic acid surface density of 4.42 mg/cm^2.\nNO release in response to single 50 nL droplets of 6M NaNO2 is shown in FIG. 15 and TABLE 4, compared to the NO release from particulate croconic acid. The croconic acid coated tape yielded 93.9% of the NO compared to the bulk croconic acid powder.\nIn another example, the procedure of the preceding paragraph was repeated by suspending 350 mg of milled croconic acid in 1 mL of isopropanol and preparing two sequential air-dried coats on the MAGNA® hydrophobic nylon strip yielding a croconic acid deposited as a dark yellow coating on the nylon membrane. NO release in response to single 50 nL droplets of 6M NaNO2 is shown in FIG. 16 and TABLE 5, compared to the NO release from particulate croconic acid. The croconic acid coated tape yielded 84.7% of the NO compared to the bulk croconic acid powder."}, "[4]": {"conditions": "cited from earlier work"}},
  "data": [
    {"compound": "O=C(O)C(O)c1c(F)c(F)cc(F)c1F", "note": "(centres unmarked) [2,3,5,6-Tetrafluoromandelic acid]", "values": [
      {"measurement": "pKa", "setting": "[1]", "value": "<<3.4"}
    ]},
    {"compound": "O=C(O)C(O)c1ccccc1F", "note": "(centres unmarked) [2-Fluoro-mandelic acid]", "values": [
      {"measurement": "pKa", "setting": "[1]", "value": "<3.4"}
    ]},
    {"compound": "O=C1O[C@H]([C@@H](O)CO)C(O)=C1O", "note": "[Ascorbic Acid, reference compound]", "values": [
      {"measurement": "Time to 90% AUC", "setting": "[2]", "value": 13.98, "unit": "s"},
      {"measurement": "NO release kinetics", "setting": "[2]", "value": "slow, protracted and irregular"},
      {"measurement": "pKa", "setting": "[1]", "value": 11.6}
    ]},
    {"compound": "O=C(O)C(O)c1ccccc1", "note": "(centres unmarked) [Mandelic acid]", "values": [
      {"measurement": "pKa", "setting": "[1]", "value": 3.37}
    ]},
    {"compound": "O=C(O)C(Cl)(Cl)Cl", "note": "[trichlomacetic acid]", "values": [
      {"measurement": "pKa", "setting": "[1]", "value": 0.77}
    ]},
    {"compound": "Croconic Acid", "values": [
      {"measurement": "Time to 90% AUC", "setting": "[2]", "value": 1.1, "unit": "s"},
      {"measurement": "NO release kinetics", "setting": "[2]", "value": "superior NO release kinetics over ascorbic acid while releasing similar quantities of NO"},
      {"measurement": "Time to 90% AUC", "setting": "[3]; Example 4A, suspension in MeOH, single coat, 1.2 µm pore size tape", "value": 0.79, "unit": "s"},
      {"measurement": "Time to 90% AUC", "setting": "[3]; Example 4B, particle size < 20µm, suspension in USP ethanol, two coats", "value": 0.85, "unit": "s"},
      {"measurement": "Time to 90% AUC", "setting": "[3]; Example 4C, suspension in isopropanol, two coats", "value": 0.77, "unit": "s"}
    ]},
    {"compound": "nonylphenol ethoxylate [NP-9]", "values": [
      {"measurement": "surface tension", "setting": "[4]; 0.1 % v/v aqueous solution at 25°C", "value": 30, "unit": "Dynes/cm"},
      {"measurement": "viscosity", "setting": "[4]; at 25°C", "value": 243, "unit": "cp"}
    ]}
  ]
}
